Measurements published in article PMC6272127, “Synthesis, Antiproliferative Activity and Molecular Properties Predictions of Galloyl Derivatives” (Molecules, 2015).
Converted amounts (≈) assume the structure as drawn. Read-outs that look alike come from different tables or passages of the source.

Key:
U251 (glioma, CNS) = assay: cells; details: for TGI: U251, total growth inhibition, 48 h
Experimental: The GI50 values (growth inhibitory activity) (Table 1) refer to the drug concentration that produces a 50% reduction of cellular growth compared with the untreated control cells. The TGI (cytostatic activity) and LC50 (cytotoxic activity) values (Table 2) refer to the drug concentration required for total growth inhibition and killing 50% of the cells, respectively.
The synthesized compounds were assessed in the following ten human tumor cell lines from various tissues kindly provide by the National Cancer Institute (Frederick, MD, USA): U251 (glioma, CNS), MCF-7 (breast), NCI-ADR/RES (breast expressing the multiple drug resistance phenotype), 786-0 (renal), NCI-H460 (lung, non-small cells), PC-3 (prostate), OVCAR-3 (ovarian), HT-29 (colon), K-562 (leukemia) and HaCaT (keratinocytes). Stock cultures were grown in media containing 5 mL of RPMI 1640 (Gibco BRL) supplemented with 5% fetal bovine serum. Gentamicin ([…]) was added to the experimental cultures. Cells in 96-well plates (100 µL cells/well) were exposed to sample concentrations in DMSO/RPMI (0.25, 2.5, 25, and 250 µg/mL) at 37 °C and 5% CO2 for 48 h. […] Next, cells were fixed with 50% trichloroacetic acid, and cell proliferation was determined by spectrophotometric quantification (540 nm) of cellular protein content employing the sulforhodamine B assay. Doxorubicin (0.025–25 µg/mL) was used as a positive control. Three measurements were obtained: first at time point zero (T0, at the beginning of incubation) and then 48 h post-incubation for both the compound-free (C) and tested (T) cells. Cell proliferation was determined using the equation 100 × [(T − T0)/C − T0]. A cytostatic effect was observed when T ≥ T0, while a cytocidal effect occurred when T < T0. The experiments were performed in triplicate.

OVCAR-3 (ovarian) = assay: Anticancer assay in vitro (sulforhodamine B), OVCAR-3; assay type: cell-based; details: for GI50: SRB; for TGI: OVCAR-3, total growth inhibition, 48 h
Experimental: (§1) The experiments were performed in triplicate.

786-0 (renal) = assay: cells; assay type: cell-based; details: for GI50 / CC50: 786-0, 48 h; for GI50: SRB; for TGI: 786-0, total growth inhibition, 48 h; for CC50: read-out: LC50
Experimental: as §1

K-562 (leukemia) = assay: cells; assay type: cell-based; details: for GI50: K-562, 48 h, SRB
Experimental: as §1

[1] = test system: NCI-H460 (lung, non-small cells); assay: cells; assay type: cell-based; details: for GI50: SRB; for TGI: NCI-H460, total growth inhibition, 48 h
Experimental: as §1

HaCaT (keratinocytes) = assay: Anticancer assay in vitro (sulforhodamine B), HaCaT; assay type: cell-based; details: 48 h; for GI50: SRB; for TGI: total growth inhibition
Experimental: as §1

MCF-7 (breast) = assay: Anticancer assay in vitro (sulforhodamine B), MCF-7; assay type: cell-based; details: for GI50: MCF-7, 48 h, SRB
Experimental: as §1

HT-29 (colon) = assay: Anticancer assay in vitro (sulforhodamine B), HT-29; assay type: cell-based; details: for GI50: SRB; for TGI: HT-29, total growth inhibition, 48 h
Experimental: as §1

[2] = test system: NCI-ADR/RES (breast expressing the multiple drug resistance phenotype); assay: cells; assay type: cell-based; details: for GI50: SRB
Experimental: as §1

PC-3 (prostate) = assay: cells; assay type: cell-based; details: for GI50: PC-3, 48 h, SRB; for TGI: PC-3, total growth inhibition
Experimental: as §1

[3] = test system: ten human tumor cell lines; assay: Anticancer assay in vitro (sulforhodamine B), statements over the panel of cell lines; assay type: cell-based
Experimental: as §1

[4] = MCF-7, total growth inhibition, 48 h
[5] = Homo sapiens, NCI/ADR-RES, 48 h
[6] = K-562, total growth inhibition, 48 h
[7] = NCI/ADR-RES, total growth inhibition, 48 h

O=C(N/N=C/c1ccc(O)cc1)c1cc(O)c(O)c(O)c1 [Compound 8, N'-(4-Hydroxybenzylidene)galloyl hydrazide]
GI50 (U251 (glioma, CNS); Homo sapiens, U-251, 48 h): 6600 nM | TGI (U251 (glioma, CNS)): 26.07 µg/mL (≈ 90.4 µM) | GI50 (OVCAR-3 (ovarian); Homo sapiens, OVCAR-3, 48 h): 1350 nM | GI50 (786-0 (renal); Homo sapiens): 26800 nM | GI50 (K-562 (leukemia); Homo sapiens, K562): 9170 nM | GI50 ([1]; Homo sapiens, NCI-H460, 48 h): 9380 nM | GI50 (HaCaT (keratinocytes); Homo sapiens): 8720 nM

O=C(N/N=C/c1ccccc1)c1cc(O)c(O)c(O)c1 [Compound 4, N'-(Benzylidene)galloyl hydrazide]
GI50 (U251 (glioma, CNS); Homo sapiens, U-251, 48 h): 7800 nM | GI50 (MCF-7 (breast); Homo sapiens, MCF7): 5550 nM | TGI (MCF-7 (breast); [4]): 23.54 µg/mL | GI50 (OVCAR-3 (ovarian); Homo sapiens, OVCAR-3, 48 h): 1240 nM | TGI (OVCAR-3 (ovarian)): 29.61 µg/mL (≈ 109 µM) | GI50 (HT-29 (colon); Homo sapiens, HT-29, 48 h): 7530 nM | GI50 (786-0 (renal); Homo sapiens): 9060 nM | GI50 (K-562 (leukemia); Homo sapiens, K562): 9960 nM | GI50 [2, 5]: 7160 nM | GI50 ([1]; Homo sapiens, NCI-H460, 48 h): 11200 nM | GI50 (PC-3 (prostate); Homo sapiens): 5070 nM | GI50 (HaCaT (keratinocytes); Homo sapiens): 8290 nM | GI50 ([3]; Homo sapiens, bound or range over all (for 4: nine) human tumor cell lines, read-out: GI50 values over the cell lines tested): 1240 to 9960 nM

Galloyl-2-methylthio-1,3,4-oxadiazole [Compound 10]
LC50 (U251 (glioma, CNS)): (30.43) µg/mL | GI50 (U251 (glioma, CNS); U251, 48 h, SRB): 5200 nM | TGI (U251 (glioma, CNS)): 16.40 µg/mL | CC50 (MCF-7 (breast)): 20200 nM | LC50 (MCF-7 (breast)): (20.24) µg/mL | GI50 (MCF-7 (breast)): 340 nM | TGI (MCF-7 (breast); MCF-7, as printed in the text): 3200 nM | TGI (MCF-7 (breast); [4]): 3.20 µg/mL | CC50 (OVCAR-3 (ovarian)): 17300 nM | LC50 (OVCAR-3 (ovarian)): (17.34) µg/mL | TGI (OVCAR-3 (ovarian)): 2.38 µg/mL | LC50 (HT-29 (colon)): (60.32) µg/mL | GI50 (HT-29 (colon); HT-29, 48 h): 2770 nM | TGI (HT-29 (colon)): 17.66 µg/mL | GI50 (786-0 (renal)): 9200 nM | TGI (786-0 (renal)): 29.40 µg/mL | CC50 (K-562 (leukemia)): 20200 nM | LC50 (K-562 (leukemia)): (20.20) µg/mL | GI50 (K-562 (leukemia)): 600 nM | TGI (K-562 (leukemia); K-562, as printed in the text): 3700 nM | TGI (K-562 (leukemia); [6]): 3.70 µg/mL | CC50 [2]: 19600 nM | LC50 [2]: (19.65) µg/mL | TGI ([2]; NCI/ADR-RES): 2330 nM | GI50 ([2]; NCI/ADR-RES, 48 h): 170 nM | TGI [2, 7]: 2.33 µg/mL | LC50 [1]: (65.78) µg/mL | GI50 ([1]; NCI-H460, 48 h): 9440 nM | TGI [1]: 29.52 µg/mL | LC50 (PC-3 (prostate)): (69.30) µg/mL | GI50 (PC-3 (prostate)): 7430 nM | TGI (PC-3 (prostate); 48 h): 28.45 µg/mL | GI50 (HaCaT (keratinocytes)): 2500 nM | TGI (HaCaT (keratinocytes)): 18.00 µg/mL

COC(=O)c1cc(O)c(O)c(O)c1 [Compound 2, Methyl gallate]
GI50 (U251 (glioma, CNS); Homo sapiens, U-251, 48 h): 160 nM | CC50 (U251 (glioma, CNS); Homo sapiens, U-251, 48 h, read-out: LC50): 29.2 µg/mL (≈ 159 µM) | TGI (U251 (glioma, CNS)): 4.10 µg/mL (≈ 22.3 µM) | GI50 (MCF-7 (breast); Homo sapiens, MCF7): 160 nM | TGI (MCF-7 (breast); [4]): 5.12 µg/mL | CC50 (OVCAR-3 (ovarian); Homo sapiens, OVCAR-3, 48 h, read-out: LC50): 33.7 µg/mL | TGI (OVCAR-3 (ovarian)): 1.59 µg/mL (≈ 8.63 µM) | TGI (HT-29 (colon)): 8.52 µg/mL (≈ 46.3 µM) | CC50 (HT-29 (colon); Homo sapiens, HT-29, 48 h, read-out: LC50): 30.6 µg/mL (≈ 166 µM) | GI50 (HT-29 (colon); Homo sapiens, HT-29, 48 h): 490 nM | TGI (786-0 (renal)): 8.62 µg/mL (≈ 46.8 µM) | CC50 (786-0 (renal); Homo sapiens): 31.4 µg/mL (≈ 170 µM) | GI50 (786-0 (renal); Homo sapiens): 650 nM | GI50 (K-562 (leukemia); Homo sapiens, K562): 310 nM | TGI (K-562 (leukemia); [6]): 5.67 µg/mL | CC50 ([2]; Homo sapiens, NCI/ADR-RES, 48 h, read-out: LC50): 30.3 µg/mL | GI50 [2, 5]: 120 nM | TGI [2, 7]: 3.62 µg/mL | CC50 ([1]; Homo sapiens, NCI-H460, 48 h, read-out: LC50): 34.9 µg/mL (≈ 190 µM) | GI50 ([1]; Homo sapiens, NCI-H460, 48 h): 130 nM | TGI [1]: 7.97 µg/mL (≈ 43.3 µM) | GI50 (PC-3 (prostate); Homo sapiens): 570 nM | TGI (PC-3 (prostate); 48 h): 13.10 µg/mL (≈ 71.1 µM) | GI50 (HaCaT (keratinocytes); Homo sapiens): 260 nM | TGI (HaCaT (keratinocytes)): 16.74 µg/mL (≈ 90.9 µM) | TGI values over the cell lines tested ([3]; range over all human tumor cell lines): 1590 to 16740 nM

COc1cccc2c1C(=O)c1c(O)c3c(c(O)c1C2=O)C[C@@](O)(C(=O)CO)C[C@@H]3O[C@H]1C[C@H](N)[C@H](O)[C@H](C)O1 [Dox, Doxorubicin, reference compound]
GI50 (U251 (glioma, CNS); Homo sapiens, U-251, 48 h): 20 nM | TGI (U251 (glioma, CNS)): 2.68 µg/mL (≈ 4.93 µM) | GI50 (MCF-7 (breast); Homo sapiens, MCF7): 10 nM | TGI (MCF-7 (breast); [4]): 2.52 µg/mL | GI50 (OVCAR-3 (ovarian); Homo sapiens, OVCAR-3, 48 h): 20 nM | TGI (OVCAR-3 (ovarian)): 1.47 µg/mL (≈ 2.7 µM) | TGI (HT-29 (colon)): 26.03 µg/mL (≈ 47.9 µM) | GI50 (HT-29 (colon); Homo sapiens, HT-29, 48 h): 90 nM | TGI (786-0 (renal)): 0.51 µg/mL (≈ 0.938 µM) | CC50 (786-0 (renal); Homo sapiens): 17.8 µg/mL (≈ 32.8 µM) | GI50 (786-0 (renal); Homo sapiens): 40 nM | CC50 (K-562 (leukemia); Homo sapiens, K562, 48 h, read-out: LC50): 20.1 µg/mL | GI50 (K-562 (leukemia); Homo sapiens, K562): 30 nM | TGI (K-562 (leukemia); [6]): 2.60 µg/mL | GI50 [2, 5]: 200 nM | TGI [2, 7]: 22.42 µg/mL | GI50 ([1]; Homo sapiens, NCI-H460, 48 h): 10 nM | TGI [1]: 3.73 µg/mL (≈ 6.86 µM) | CC50 (PC-3 (prostate); Homo sapiens, 48 h, read-out: LC50): 7.95 µg/mL (≈ 14.6 µM) | GI50 (PC-3 (prostate); Homo sapiens): 180 nM | TGI (PC-3 (prostate); 48 h): 1.03 µg/mL (≈ 1.9 µM) | GI50 (HaCaT (keratinocytes); Homo sapiens): 10 nM | TGI (HaCaT (keratinocytes)): 0.77 µg/mL (≈ 1.42 µM)
